Like-named read-outs stand apart in the source and are kept apart here.
What was measured:
[1] = cited from earlier work
[2] = test system: CT-26 cancer cells; experiment: (Photo)cytotoxicity in 2D monolayer cells under normoxia (21% O2), resazurin assay; assay type: cell-based, murine; details: for Phototherapeutic index (PI) = IC50(dark)/IC50(light): normoxia; for IC50: Mus musculus
Method: To that end, cells were incubated for 4 h with increasing concentrations of the compounds, and after refreshing the medium, they were either illuminated or kept in the dark. […] The phototoxic index (PI), defined as the ratio of dark to light IC50 values, was used to quantify the phototherapeutic efficiency of the tested compounds. […] Using a well-by-well monochromatic LED device, cells were irradiated with green (540 nm, 40 min), yellow (595 nm, 1 h), red (620 nm, 1 h), deep-red (645 nm, 1 h), far-red (670 nm, 1 h), or NIR (740 nm, 1 h) light, with fluences ranging from 3.4 J/cm^2 (595 nm) to 13.5 J/cm^2 (670 nm).
In vitro (photo)cytotoxicity determination of Ru-COUBPY PSs
CT-26 cells were cultured in Dulbecco’s modified Eagle medium (DMEM) (Gibco)
supplemented with 10% fetal calf serum (Gibco) and 2 mM L-glutamine.
the corresponding culture medium was supplemented with 100 U·mL−1 penicillin streptomycin
mixture (Gibco) and cells were maintained in a humidified atmosphere at 37 °C and 5 % of
(Photo)cytotoxicity evaluation in 2D monolayer cells under normoxia (21% O2)
The (photo)cytotoxicity of the test compounds under normoxia (21% O2) was assessed by a
fluorometric cell viability assay using Resazurin (Acros Organics). CT-26 cells were seeded in
triplicate in 96-well plates at a density of 4000 cells/well in complete medium in a final volume
of 100 μL/well. After 24 h, cells were treated with increasing concentrations of the test
compounds using serial dilutions of the test compounds in complete culture medium (DMSO
≤1 %) at final concentrations in the range of 0 to 250 μM (100 μL/well), followed by a 4-h
incubation at 37 °C, 5% CO2 in the dark. The medium containing the PS was then replaced with
fresh medium (100 μL/well) and plates were irradiated for 1 h at 37 °C, 0 % CO2 with 540 nm
(spectral half-width: 32 nm, 40 min, 3.75 mW cm−2, 9.0 J cm−2), 595 nm (spectral half-width:
mW cm−2, 6.7 J cm−2), 645 nm (spectral half-width: 32 nm, 60 min, 2.50 mW cm−2, 9.0 J cm−2),
670 nm (spectral half-width: 32 nm, 60 min, 3.75 mW cm−2, 13.5 J cm−2) or 740 nm (spectral
half-width: 32 nm, 60 min, 3.50 mW cm−2, 12.6 J cm−2) light using a LED multi-well plate
photo-irradiation system (Atlas Photonics Lumos Bio). To evaluate the cytotoxicity of the test
compounds in the dark, three additional plates of treated cells were kept in the dark for 1 h at
37 °C, 0 % CO2. Cells were then kept in the incubator (37 °C, 5 % CO2) over a recovery period
of 44 h. Next, the medium was replaced with complete medium containing Resazurin (0.2
mg/mL, 100 μL/well), followed by a 4-h incubation at 37 °C, 5 % CO2. Finally, the fluorescence
signal of the Resorufin product was measured (ex = 540 nm, em = 590 nm) using a Infinite
200 PRO Microplate Reader from TECAN. IC50 values were then calculated based on the
inhibitory rate curves using the following equation (6)
where I represent the percentage inhibition of viability observed, Imax is the maximal inhibitory
effect, IC50 is the concentration that inhibits 50% of maximal growth, C is the concentration of
the treatment and n is the slope of the semi-logarithmic dose-response sigmoidal curves. The
non-linear fitting was performed using GraphPad Prism software. All experiments were
performed in three independent studies with triplicate points per concentration level.

CN(C)c1ccc2nc3ccc(=[N+](C)C)cc-3sc2c1 [methylene blue]
reference singlet oxygen quantum yield ΦΔ,ref ([1]; aerated DCM): 0.57

C=CC1=C(C)c2cc3[nH]c(cc4nc(cc5[nH]c(cc1n2)c(C)c5CCC(=O)O)C(CCC(=O)O)=C4C)c(C)c3C=C [PpIX, Protoporphyrin IX]
Phototherapeutic index (PI) = IC50(dark)/IC50(light) ([2]; 540 nm): >312 | Phototherapeutic index (PI) = IC50(dark)/IC50(light) ([2]; 595 nm): >250 | Phototherapeutic index (PI) = IC50(dark)/IC50(light) ([2]; 620 nm): >151 | Phototherapeutic index (PI) = IC50(dark)/IC50(light) ([2]; 645 nm): >588 | Phototherapeutic index (PI) = IC50(dark)/IC50(light) ([2]; 670 nm): >129 | Phototherapeutic index (PI) = IC50(dark)/IC50(light) ([2]; 740 nm): >50 | IC50 ([2]; CT26, 540 nm, 9.0 J cm–2, normoxia 21% O2): 320 ± 90 nM | IC50 ([2]; CT26, 595 nm, 3.4 J cm–2, normoxia 21% O2): 400 ± 10 nM | IC50 ([2]; CT26, 620 nm, 6.7 J cm–2, normoxia 21% O2): 660 ± 210 nM | IC50 ([2]; CT26, 645 nm, 9.0 J cm–2, normoxia 21% O2): 170 ± 210 nM | IC50 ([2]; CT26, 670 nm, 13.5 J cm–2, normoxia 21% O2): 770 ± 200 nM | IC50 ([2]; CT26, 740 nm, 12.6 J cm–2, normoxia 21% O2): 2100 ± 200 nM | IC50 ([2]; CT26, 4 h, dark, normoxia 21% O2, 4 h incubation): > 100000 nM

[Cl][Ru][Cl].c1ccc(-c2ccccn2)nc1.c1ccc(-c2ccccn2)nc1.c1ccc(-c2ccccn2)nc1 [[Ru(bpy)3]Cl2]
reference singlet oxygen quantum yield ΦΔ,ref ([1]; aerated CH3CN): 0.57
